Data on 7 molecules can be found in patent US20220372033A1, “ANTIBACTERIAL COMPOUNDS” (Janssen Sciences Ireland Unlimited Company, priority 2019, published 2022).

pIC50: −log10 of the molar value. Where “and” joins values, the source holds several entries; their conditions need not be identical. Equal values may be shown once. Read-outs that look alike come from different tables or passages of the source.

Series [1] deals with Mitochondrial toxicity (Glu/Gal). As to the kind of experiment: Mitochondrial toxicity (Glu/Gal) assay. The class given is cell-based. Conditions: for Mitotoxicity Score: Glu/Gal assay, <3 indicates no mitotoxicity alerts. An excerpt:
(§1) The compounds of the invention/examples may have advantages associated with in vitro potency, kill kinetics (i.e. bactericidal effect) in vitro, PK properties, food effect, safety/toxicity (including liver toxicity, coagulation, 5-LO oxygenase), metabolic stability, Ames II negativity, MNT negativity, aqueous based solubility (and ability to formulate) and/or cardiovascular effect e.g. on animals (e.g. anesthetized guinea pig). The data below that was generated/calculated may be obtained using standard methods/assays, for instance that are available in the literature or which may be performed by a supplier (e.g. Microsomal Stability Assay—Cyprotex, Mitochondrial toxicity (Glu/Gal) assay—Cyprotex, as well as literature CYP cocktail inhibition assays).
Compounds of the invention/examples, may therefore have the advantage that: • No in vitro cardiotoxicity is observed (for example either due to the CVS results or due to the Glu/Gal assay results, for instance low mitotoxicity (<3 in the Glu/Gal assay indicates no mitotoxicity alerts); and/or • No reactive metabolite formation is observed (e.g. GSH);

For series [2], the system named is Mycobacterium tuberculosis (Mtb) bacilli, strain H37Ra. As to the kind of experiment: Phenotypic assay of O2 consumption rate (OCR), Test 4, Seahorse XFe96, with Compound X. Conditions: after Compound X 0.9 μM, test compound 10 μM and uncoupler CCCP 1 μM.
The next series deals with rNaCH. Put plainly: Cardio tox rNaCH.
Description: as §1

The next series has as its target hERG(DOF) (Homo sapiens, UniProt Q12809). As to the kind of experiment: Cardio tox hERG(DOF).
Description: as §1
(The hERG channel carries a current that helps repolarise heart muscle cells.)

Series [3] relates to Mycobacterium tuberculosis strain H37Rv ΔctaE-ΔqcrCAB. As to the kind of experiment: microbe, parasite or virus in culture. The class given is cell-based. Particulars: 240 h.
Another series deals with rCaCH. Put plainly: Cardio tox rCaCH. Particulars: read-out: Cardio tox rCaCH (pIC50) (converted).
Description: as §1

hERG(DOF), sequence (Q12809 whole entry): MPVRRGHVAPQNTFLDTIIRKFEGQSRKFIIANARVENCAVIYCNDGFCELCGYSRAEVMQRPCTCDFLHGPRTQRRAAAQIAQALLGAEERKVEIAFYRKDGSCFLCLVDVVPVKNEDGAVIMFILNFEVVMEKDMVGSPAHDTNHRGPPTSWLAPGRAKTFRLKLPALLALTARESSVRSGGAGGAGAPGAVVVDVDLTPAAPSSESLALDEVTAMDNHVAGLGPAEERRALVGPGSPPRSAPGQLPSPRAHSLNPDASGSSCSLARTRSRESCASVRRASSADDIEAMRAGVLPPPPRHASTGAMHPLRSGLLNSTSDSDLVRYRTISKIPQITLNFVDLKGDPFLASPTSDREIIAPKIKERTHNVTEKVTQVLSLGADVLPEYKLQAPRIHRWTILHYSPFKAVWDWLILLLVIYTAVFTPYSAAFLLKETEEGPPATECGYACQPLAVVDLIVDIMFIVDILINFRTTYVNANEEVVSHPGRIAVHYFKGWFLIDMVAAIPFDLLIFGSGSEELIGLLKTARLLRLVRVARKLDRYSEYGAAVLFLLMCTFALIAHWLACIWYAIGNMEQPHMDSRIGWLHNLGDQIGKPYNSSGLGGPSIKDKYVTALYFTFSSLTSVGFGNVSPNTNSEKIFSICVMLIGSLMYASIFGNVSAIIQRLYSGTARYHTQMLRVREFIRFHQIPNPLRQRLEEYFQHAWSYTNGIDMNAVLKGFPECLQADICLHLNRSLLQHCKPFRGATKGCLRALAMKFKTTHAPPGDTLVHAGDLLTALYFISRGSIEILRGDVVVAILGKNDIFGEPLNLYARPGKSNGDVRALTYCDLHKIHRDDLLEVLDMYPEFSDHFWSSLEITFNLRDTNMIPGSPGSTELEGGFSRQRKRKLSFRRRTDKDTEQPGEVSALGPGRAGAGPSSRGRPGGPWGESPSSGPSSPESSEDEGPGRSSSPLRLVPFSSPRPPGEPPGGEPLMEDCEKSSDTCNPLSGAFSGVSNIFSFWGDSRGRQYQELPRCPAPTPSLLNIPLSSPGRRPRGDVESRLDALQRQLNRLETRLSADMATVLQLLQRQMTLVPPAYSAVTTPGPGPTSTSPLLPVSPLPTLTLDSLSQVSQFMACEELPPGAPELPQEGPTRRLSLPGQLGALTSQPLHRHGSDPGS

For the molecule `Cc1c(-c2ccc3cc(-c4cccc(OC(F)(F)F)c4)nn3c2)[nH]c2ccccc2c1=O` [Compound 8], in series [1], the “Mitotoxicity Score” value is listed as “positive”. Moreover, the pIC50 was 4.97 in series [1] (galactose medium, read-out: IC50, gal) and no more than 3.70 in series [1] (glucose medium, read-out: IC50, glu). Besides, in series [2], the “(ii) % OCR after cccp” value stood at 93.125%.
As for `CCc1nc2ccc(-c3[nH]c4ccccc4c(=O)c3C)cn2c1C(=O)NCc1ccc(OC(F)(F)F)cc1` [Compound 7], the “Mitotoxicity Score” value in series [1] was “negative”. Also, in series [2], the “(ii) % OCR after cccp” value is 110.6%.
`Cc1c(-c2ccc3nc(-c4cccc(OC(F)(F)F)c4)cn3c2)[nH]c2ccccc2c1=O` [Compound 5]: the melting point was 229.9 °C. For the same molecule, the pIC50 in the series with rNaCH is 5.42. Further, the pIC50 against hERG(DOF) is less than 5.00. For the same molecule, the “(ii) % OCR after cccp” value in series [2] was 159.3%. The pIC50 in series [3] is less than 4.00. Further, in the series on rCaCH, the IC50 is greater than 10 µM.
`Cc1c(-c2ccc3nc(-c4ccccc4)cn3c2)[nH]c2ccccc2c1=O` [Compound 4] gave a melting point of 337.2 °C. The “(ii) % OCR after cccp” value in series [2] is 144.1%. Moreover, the negative-log IC50 (pIC50) in series [3] was less than 4.00.
In the case of `Cc1c(-c2ccc3cc(-c4cccc(OC(F)(F)F)c4)nn3c2)[nH]c2ccccc2c1=O` [Compound 1], the melting point was 243.7 °C. Also, in the series on rNaCH, the pIC50 was 5.52. In addition, in series [1], the “Mitotoxicity Score” value was “positive”. This molecule also gave a pIC50 at hERG(DOF) of 5.40. In series [2], the “(ii) % OCR after cccp” value is on record as 93.2%. In addition, in series [3], the pIC50 was 4.56. Further, the IC50 in the series on rCaCH is 3.5 µM.
Take `Cc1c(-c2ccc3cc(-c4cccc(OC(F)(F)F)c4)cn3c2)[nH]c2ccccc2c1=O` [Compound 3]: the melting point came to 257.8 °C. The pIC50 in the series on rNaCH is 5.72. For the same molecule, the “Mitotoxicity Score” value in series [1] is reported as “negative”. At hERG(DOF), this molecule showed a pIC50 of less than 5.00. For the same molecule, the “(ii) % OCR after cccp” value in series [2] was 196.1% and 131.0%. For the same molecule, in series [3], the pIC50 was less than 4.00. Also, the IC50 in the series on rCaCH is greater than 10 µM.
Take `Cc1c(-c2ccc3nc(Cc4ccc(OC(F)(F)F)cc4)cn3c2)[nH]c2ccccc2c1=O` [Compound 2]: the melting point was 244.8 °C. The molecule also gave a pIC50 in the series on rNaCH of 5.59. For the same molecule, the “Mitotoxicity Score” value in series [1] was “positive”. The molecule further showed a pIC50 at hERG(DOF) of 5.74. Moreover, in series [2], the “(ii) % OCR after cccp” value was determined as 112.0%. The pIC50 in series [3] was 4.04. The IC50 with rCaCH was greater than 10 µM.

For orientation: pIC50 means the IC50 on a negative log10 scale, so that one unit is a factor of ten. Usually melting point stands for the temperature, or range, at which the solid turns liquid.
